In US9512139B2, “Conformationally constrained, fully synthetic macrocyclic compounds” (POLYPHOR AG, priority 2009, dated 2016) one finds IC50 and inhibition data, which are given here for 18 compounds.

SMILES strings stand for the structures.

For the assay, the target named is T1, Prostaglandin F (FP) Receptor (Homo sapiens, UniProt P43088).
T1 construct: host or cells: Ca2+ optimized hematopoietic cell lines (rat)
Kind of assay: Ca2+ assay (FLIPR) for the GPCR prostaglandin F (FP) receptor, agonist and antagonist mode. The class given is cell-based. The procedure:
Biological and Pharmacological Methods 1. Ca^2+ Assays for the GPCRs Motilin Receptor, Prostaglandin F (FP) Receptor, 5-hydroxytryptamine 2B (5-HT2B) Receptor, and Purinoreceptor P2Y1
Assays were performed using on a FLIPR^TETRA fluorometric imaging plate reader (Molecular Devices) with ScreenWorks Version 2 (Molecular Devices) as device operating and data analysis software.
Dose dependent agonist and antagonist activities were determined. Percentage activation and percentage inhibition values were determined.
Percentage activation was determined upon initial addition of the sample compounds followed by 10 minutes incubation at 25° C. Following compound incubation, reference agonists were added at EC80 to determine percentage inhibition.
Reference agonists were purchased from reputable commercial vendors and prepared according to each ligand's specifications. All handling of ligands were done to ensure proper control throughout the experiments.
Example compounds were weighed on a Microbalance (Mettler MX5) and dissolved in 100% DMSO to a final concentration of 2.5 mM and subsequently diluted into the assay buffer.
The Assay buffer was a supplemented HBSS (Hank's Balanced Salt Solution). HBSS was supplemented with 20 mM HEPES (4-(2-hydroxyethyl)-piperazin-1-ethansulfonic acid) and 2.5 mM Probenecid (Sigma P8761).
GPCR assays were performed using Ca^2+ optimized hematopoietic cell lines (rat) with cultures never exceeding 90% confluency. Cells were harvested and seeded (from cultures at less than 90% confluency) at 50000 cells/well for a 96-well plate (12500 cells/well for 384). After seeding, the assay plates were incubated for forty-five (45) minutes at room temperature. After room temperature incubation, the assay plates were incubated at 37° C. 5% CO2 for 24 hours prior to assaying.
All GPCR assays were performed using Fluo-8 Ca^2+ dye. Ca^2+ dye was prepared at 1× dye concentration in GPCR assay buffer. After 24 hours of incubation, cells were washed with GPCR assay buffer, and then Ca^2+-dye (100 μL/well) was added.
The plates were incubated for 90 minutes at 30° C. 5% CO2 prior to FLIPR assay.
Compound plates were prepared to add 50 μL/well during the agonist assay mode. During the FLIPR assay, 50 μL/well from the compound plate was diluted 3-fold into the existing 100 μL/well from the dye loading step. Therefore all compounds were prepared as 3× the final concentration desired in the assay.
After completion of the first single addition assay run, assay plate was removed from the FLIPR Tetra and placed at 25° C. for seven (7) minutes before antagonist assay.
Using the EC80 values determined during the agonist assay, all pre-incubated sample compound and reference antagonist (if applicable) wells were stimulated at the EC80 of the reference agonist. As reference ligands for the first three assays their obvious natural ligands motilin, prostaglandin F2α, and serotonin (5-HT, 5-Hydroxytryptamine) were used; and for the P2Y1 assay 2MeSATP (2-methyl-thio-adeno-sine 5′-triphosphate, i.e. (2R,3S,4R)-5-(6-amino-2-methylsulfanyl-purin-9-yl)-3,4-dihydroxy-tetrahydrofuran-2-yl]methyl (hydroxy-phosphonooxy-phosphoryl)hydrogen phosphate) was applied.
After the addition of the reference agonist fluorescence was monitored for 180 sec using FLIPR Tetra.
Data Analysis and Results:
From the FLIPR data, with negative control correction enabled, the maximum statistic for each well was exported and percentage activation relative to Emax control was calculated.

T1 sequence (P43088 whole entry): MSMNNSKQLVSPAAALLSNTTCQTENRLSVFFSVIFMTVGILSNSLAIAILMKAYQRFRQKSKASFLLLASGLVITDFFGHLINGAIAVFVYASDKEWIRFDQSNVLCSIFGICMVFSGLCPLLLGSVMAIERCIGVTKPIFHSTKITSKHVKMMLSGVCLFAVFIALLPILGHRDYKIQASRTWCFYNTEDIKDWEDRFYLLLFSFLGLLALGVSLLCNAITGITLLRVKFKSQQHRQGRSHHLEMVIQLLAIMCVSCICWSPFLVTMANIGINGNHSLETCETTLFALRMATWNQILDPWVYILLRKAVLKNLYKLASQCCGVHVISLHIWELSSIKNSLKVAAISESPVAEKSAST

By IC50 is commonly meant the concentration that gives 50% inhibition. High values mean a need for much substance, low ones inhibition by little substance. A word on the inhibition: it is how much of the control response was suppressed. On to `CN1CCC[C@H](NC(=O)CCCCOc2ccccc2)C(=O)N2C[C@@H](NC(=O)Cc3ccc4ccccc4c3)C[C@H]2COc2cccc(c2)C1=O` [Ex. 517, N-[(4S,6S,10S)-14-methyl-6-{[2-(2-naphthyl)acetyl]amino}-9,15-dioxo-2-oxa-8,14-diazatricyclo[14.3.1.0^4,8]icosa-1(20),16,18-trien-10-yl]-5-phenoxypentanamide], for which the IC50 is 0.65 µM and the inhibition at 10 µM stood at 98%.

Take `CCCCCC(=O)N[C@H]1C[C@H]2COc3cccc(c3)C(=O)N(C)CCC[C@H](NC(=O)Cc3cccc4ccccc34)C(=O)N2C1` [Ex. 544, N-[(4S,6S,10S)-14-methyl-10-{[2-(1-naphthyl)acetyl]amino}-9,15-dioxo-2-oxa-8,14-diazatricyclo[14.3.1.0^4,8]icosa-1(20),16,18-trien-6-yl]hexanamide]: the inhibition at 10 µM worked out at 81%.

`CN1CCC[C@H](NC(=O)CC(c2ccccc2)c2ccccc2)C(=O)N2C[C@@H](NC(=O)Cc3ccc4ccccc4c3)C[C@H]2COc2cccc(c2)C1=O` [Ex. 523, N-[(4S,6S,10S)-14-methyl-6-{[2-(2-naphthyl)acetyl]amino}-9,15-dioxo-2-oxa-8,14-diazatricyclo[14.3.1.0^4,8]icosa-1(20),16,18-trien-10-yl]-3,3-diphenylpropanamide] showed an IC50 of 0.86 µM and an inhibition at 10 µM of 92%.

Compound `CN1CCC[C@H](NC(=O)CCCCCOCc2ccccc2)C(=O)N2C[C@@H](NC(=O)Cc3ccc4ccccc4c3)C[C@H]2COc2cccc(c2)C1=O` [Ex. 521, 6-(benzyloxy)-N-[(4S,6S,10S)-14-methyl-6-{[2-(2-naphthyl)acetyl]amino}-9,15-dioxo-2-oxa-8,14-diazatricyclo[14.3.1.0^4,8]icosa-1(20),16,18-trien-10-yl]hexanamide] registered an IC50 of 1 µM and an inhibition at 10 µM of 81%.

`CN1CCC[C@H](NC(=O)Cc2ccc(-c3ccccc3)cc2)C(=O)N2C[C@@H](NC(=O)C(c3ccccc3)c3ccccc3)C[C@H]2COc2cccc(c2)C1=O` [Ex. 546, N-[(4S,6S,10S)-10-[(2-[1,1′-biphenyl]-4-ylacetyl)amino]-14-methyl-9,15-dioxo-2-oxa-8,14-diazatricyclo[14.3.1.0^4,8]icosa-1(20),16,18-trien-6-yl]-2,2-diphenylacetamide] gave an inhibition at 10 µM of 37%.

Take `CCCCCCCCCC(=O)N[C@H]1CCCN(C)C(=O)c2cccc(c2)OC[C@@H]2C[C@H](NC(=O)Cc3cccc4ccccc34)CN2C1=O` [Ex. 519, N-[(4S,6S,10S)-14-methyl-6-{[2-(1-naphthyl)acetyl]amino}-9,15-dioxo-2-oxa-8,14-diazatricyclo[14.3.1.0^4,8]icosa-1(20),16,18-trien-10-yl]decanamide]: the IC50 amounted to 3 µM.

In turn, `CCCCCCCCCC(=O)N[C@H]1CCCN(C)C(=O)c2cccc(c2)OC[C@@H]2C[C@H](NC(=O)CCc3ccccc3)CN2C1=O` [Ex. 509, N-[(4S,6S,10S)-14-methyl-9,15-dioxo-6-[(3-phenylpropanoyl)amino]-2-oxa-8,14-diazatricyclo[14.3.1.0^4,8]icosa-1(20),16,18-trien-10-yl]decanamide] returned a half-inhibitory concentration (IC50) of 2.1 µM and an inhibition at 10 µM of 54%.

In turn, `CN1CCC[C@H](NC(=O)Cc2ccc3ccccc3c2)C(=O)N2C[C@@H](NC(=O)Nc3cccc(F)c3)C[C@H]2COc2cccc(c2)C1=O` [Ex. 537, N-[(4S,6S,10S)-6-{[(3-fluoroanilino)carbonyl]amino}-14-methyl-9,15-dioxo-2-oxa-8,14-diazatricyclo[14.3.1.0^4,8]icosa-1(20),16,18-trien-10-yl]-2-(2-naphthyl)acetamide] gave an inhibition at 10 µM of 75%.

Compound `CN1CCC[C@H](NC(=O)Cc2cccc3ccccc23)C(=O)N2C[C@@H](NC(=O)C(c3ccccc3)c3ccccc3)C[C@H]2COc2cccc(c2)C1=O` [Ex. 549, N-[(4S,6S,10S)-14-methyl-10-{[2-(1-naphthyl)acetyl]amino}-9,15-dioxo-2-oxa-8,14-diazatricyclo[14.3.1.0^4,8]icosa-1(20),16,18-trien-6-yl]-2,2-diphenylacetamide] returned an inhibition at 10 µM of 62%.

In turn, `CN1CCC[C@H](NC(=O)Cc2ccc3ccccc3c2)C(=O)N2C[C@@H](NC(=O)Cc3ccc4ccccc4c3)C[C@H]2COc2cccc(c2)C1=O` [Ex. 186, N-[(4S,6S,10S)-14-methyl-10-{[2-(2-naphthyl)acetyl]amino}-9,15-dioxo-2-oxa-8,14-diazatricyclo[14.3.1.0^4,8]icosa-1(20),16,18-trien-6-yl]-2-(2-naphthyl)acetamide] displayed an IC50 of 1.2 µM and an inhibition at 10 µM of 53%.

`CN1CCC[C@H](NC(=O)CC(C)(C)C)C(=O)N2C[C@@H](NC(=O)Nc3cccc(N(C)C)c3)C[C@H]2COc2cccc(c2)C1=O` [Ex. 552, N-[(4S,6S,10S)-6-({[3-(dimethylamino)anilino]carbonyl}amino)-14-methyl-9,15-dioxo-2-oxa-8,14-diazatricyclo[14.3.1.0^4,8]icosa-1(20),16,18-trien-10-yl]-3,3-dimethylbutanamide] registered an inhibition at 10 µM of 71%.

`CCCCCCCCCC(=O)N[C@H]1C[C@H]2COc3cccc(c3)C(=O)N(C)CCC[C@H](NC(=O)Cc3cccc4ccccc34)C(=O)N2C1` [Ex. 543, N-[(4S,6S,10S)-14-methyl-10-{[2-(1-naphthyl)acetyl]amino}-9,15-dioxo-2-oxa-8,14-diazatricyclo[14.3.1.0^4,8]icosa-1(20),16,18-trien-6-yl]decanamide] showed an inhibition at 10 µM of 82%.

In turn, `CN1CCC[C@H](NC(=O)Cc2ccc3ccccc3c2)C(=O)N2C[C@@H](NC(=O)Nc3ccc(N(C)C)cc3)C[C@H]2COc2cccc(c2)C1=O` [Ex. 538, N-[(4S,6S,10S)-6-({[4-(dimethylamino)anilino]carbonyl}amino)-14-methyl-9,15-dioxo-2-oxa-8,14-diazatricyclo[14.3.1.0^4,8]icosa-1(20),16,18-trien-10-yl]-2-(2-naphthyl)acetamide] had an inhibition at 10 µM of 80%.

`CN1CCC[C@H](NC(=O)CCCCCc2ccccc2)C(=O)N2C[C@@H](NC(=O)Cc3ccc4ccccc4c3)C[C@H]2COc2cccc(c2)C1=O` [Ex. 516, N-[(4S,6S,10S)-14-methyl-6-([2-(2-naphthyl)acetyl]amino}-9,15-dioxo-2-oxa-8,14-diazatricyclo[14.3.1.0^4,8]icosa-1(20),16,18-trien-10-yl]-6-phenylhexanamide]: the IC50 worked out at 0.59 µM and the inhibition at 10 µM worked out at 97%.

On to `CN1CCC[C@H](NC(=O)Cc2ccc3ccccc3c2)C(=O)N2C[C@@H](NC(=O)Oc3ccccc3)C[C@H]2COc2cccc(c2)C1=O` [Ex. 539, phenyl N-[(4S,6S,10S)-14-methyl-10-{[2-(2-naphthyl)acetyl]amino}-9,15-dioxo-2-oxa-8,14-diazatricyclo[14.3.1.0^4,8]icosa-1(20),16,18-trien-6-yl]carbamate], for which the inhibition at 10 µM amounted to 59%.

Consider `CCCCCCCCCC(=O)N[C@H]1CCCN(C)C(=O)c2cccc(c2)OC[C@@H]2C[C@H](NC(=O)Cc3cccc(Oc4ccccc4)c3)CN2C1=O` [Ex. 515, N-[(4S,6S,10S)-14-methyl-9,15-dioxo-6-{[2-(3-phenoxyphenyl)acetyl]amino}-2-oxa-8,14-diazatricyclo[14.3.1.0^4,8]icosa-1(20),16,18-trien-10-yl]decanamide], for which the IC50 was found to be 5.1 µM and testing at 10 µM gave an inhibition of 32%.

`CCCCCCCCCC(=O)N[C@H]1CCCN(C)C(=O)c2cccc(c2)OC[C@@H]2C[C@H](NC(=O)C(c3ccccc3)c3ccccc3)CN2C1=O` [Ex. 548, N-[(4S,6S,10S)-6-[(2,2-diphenylacetyl)amino]-14-methyl-9,15-dioxo-2-oxa-8,14-diazatricyclo[14.3.1.0^4,8]icosa-1(20),16,18-trien-10-yl]decanamide] showed an inhibition at 10 µM of 69%.

`CN1CCC[C@H](NC(=O)Cc2ccc3ccccc3c2)C(=O)N2C[C@@H](NC(=O)Cc3ccc4cccnc4c3)C[C@H]2COc2cccc(c2)C1=O` [Ex. 540, N-[(4S,6S,10S)-14-methyl-9,15-dioxo-6-{[2-(7-quinolinyl)acetyl]amino}-2-oxa-8,14-diazatricyclo[14.3.1.0^4,8]icosa-1(20),16,18-trien-10-yl]-2-(2-naphthyl)acetamide] registered an inhibition at 10 µM of 43%.
